Measurements: patent publication US20130053381A1, “2,4-DIOXO-1,4-DIHYDRO-2H-QUINAZOLIN-3-YL-SULFONAMIDE DERIVATIVES” (NOVARTIS AG, priority 2010, published 2013)
Read-outs that look alike come from different tables or passages of the source.

Test system: OF1 mice
Assay: Maximal electroshock test (MES Test)
Type: in vivo
Conditions: Mus musculus, p.o., read-out: %-Protection
Procedure: Compounds of the invention were tested in OF1 mice using the maximal electroshock test (MES Test) described in detail by Schmutz et al., Naunyn-Schmiedeberg's Arch Pharmacol 1990, 342, 61-66. Briefly, generalized tonic-clonic convulsions of the hind extremities were induced by passing electrical current through temporal electrodes (50 Hz, 18 mA, 0.2s). […] 30 mg/kg carbamazepine was used as a positive control; mice were classified as protected by a compound If the duration of the seizure lasted only 3 second or less. Five mice were used for each treatment condition and the percentage of protected mice was used as readout (i.e. a compound could give 0%, 20%, 40%, 60%, 80% or 100% protection). Usually, compounds of the invention or their parents were given at a dose of 50 mg/kg, p.o., 1 hour prior to induction of convulsions (i.e. “pre-treatment time −1 h”).
ED50 values (ED: effective dose) were calculated using GraphPad Prism, v4.02. after shock administration, mouse blood was collected for determination of compounds' blood exposure.

[1] = po, 50 mg/kg, pre-treatment time −1 h

SMILES | responders at 50 mg/kg [1] | other results
CCCC(=O)N(n1c(=O)[nH]c2cc(C(F)(F)F)c(-n3ccnc3C)cc2c1=O)S(C)(=O)=O [Example 7.02, N-Butyryl-N-[6-(2-methyl-imidazol-1-yl)-2,4-dioxo-7-trifluoromethyl-1,4-dihydro-2H-quinazolin-3-yl]-methanesulfonamide] | 20% | –
CCc1cc2[nH]c(=O)n(N(C(=O)OC(C)C)S(C)(=O)=O)c(=O)c2cc1-c1ccnn1C [Example 2.12, Methanesulfonyl-[7-ethyl-6-(2-methyl-2H-pyrazol-3-yl)-2,4-dioxo-1,4-dihydro-2H-quinazolin-3-yl]-carbamic acid isopropyl ester] | 60% | –
CCCCOC(=O)N(n1c(=O)[nH]c2cc(C(F)F)c(-c3ccnn3CC)cc2c1=O)S(C)(=O)=O [[7-Difluoromethyl-6-(2-ethyl-2H-pyrazol-3-yl)-2,4-dioxo-1,4-dihydro-2H-quinazolin-3-yl]-methanesulfonyl-carbamic acid butyl ester] | – | responders at 50 mg/kg (dose of up to 50 mg/kg, 1 hour prior to induction of convulsions): 0%
CCCCCC(=O)N(n1c(=O)[nH]c2cc(CC)c(-c3ccnn3CC)cc2c1=O)S(C)(=O)=O [Example 13.02, N-[7-Ethyl-6-(2-ethyl-2H-pyrazol-3-yl)-2,4-dioxo-1,4-dihydro-2H-quinazolin-3-yl]-N-hexanoyl-methanesulfonamide] | 20% | –
CCC(=O)N(n1c(=O)[nH]c2cc(C(F)(F)F)c(-c3ccnn3C(C)C)cc2c1=O)S(C)(=O)=O [Example 5.02, N-[6-(2-Isopropyl-2H-pyrazol-3-yl)-2,4-dioxo-7-trifluoromethyl-1,4-dihydro-2H-quinazolin-3-yl]-N-propionyl-methanesulfonamide] | 20% | –
CCCC(=O)N(n1c(=O)[nH]c2cc(C(C)C)c(-c3ccnn3C)cc2c1=O)S(C)(=O)=O [Example 3.13, N-Butyryl-N-[7-isopropyl-6-(2-methyl-2H-pyrazol-3-yl)-2,4-dioxo-1,4-dihydro-2H-quinazolin-3-yl]-methanesulfonamide] | 100% | –
CC(C)c1cc2[nH]c(=O)n(N(C(=O)CCN3CCOCC3)S(C)(=O)=O)c(=O)c2cc1-c1ccnn1C [Example 3.38, N-[7-Isopropyl-6-(2-methyl-2H-pyrazol-3-yl)-2,4-dioxo-1,4-dihydro-2H-quinazolin-3-yl]-N-(3-morpholin-4-yl-propionyl)-methanesulfonamide] | 80% | –
CCCCCC(=O)N(n1c(=O)[nH]c2cc(C(F)(F)F)c([C@H]3CCCO3)cc2c1=O)S(C)(=O)=O [Example 10.09, N—((R)-2,4-Dioxo-6-tetrahydro-furan-2-yl-7-trifluoromethyl-1,4-dihydro-2H-quinazolin-3-yl)-N-hexanoyl-methanesulfonamide] | 60% | –
CCCCCCOC(=O)N(n1c(=O)[nH]c2cc(C(C)C)c(-c3ccnn3C)cc2c1=O)S(C)(=O)=O [Example 3.22, [7-Isopropyl-6-(2-methyl-2H-pyrazol-3-yl)-2,4-dioxo-1,4-dihydro-2H-quinazolin-3-yl]-methanesulfonyl-carbamic acid hexyl ester] | 100% | –
CC(=O)OC(C)(C)C(=O)N(n1c(=O)c2cc(-c3ccnn3C)c(C(C)C)cc2n(C(=O)C(C)(C)OC(C)=O)c1=O)S(C)(=O)=O [Example 3.11, Acetic acid 2-[3-[(2-acetoxy-2-methyl-propionyl)-methanesulfonyl-amino]-7-isopropyl-6-(2-methyl-2H-pyrazol-3-yl)-2,4-dioxo-3,4-dihydro-2H-quinazolin-1-yl]-1,1-dimethyl-2-oxo-ethyl ester] | – | responders at 15 mg/kg (po, Dose: 15 mg/kg, pre-treatment time −2 h (footnotes a,c)): 40%
Cc1nccn1-c1cc2c(=O)n(N(C(=O)OCC(C)C)S(C)(=O)=O)c(=O)[nH]c2cc1C(F)(F)F [Example 7.04, Methanesulfonyl-[6-(2-methyl-imidazol-1-yl)-2,4-dioxo-7-trifluoromethyl-1,4-dihydro-2H-quinazolin-3-yl]-carbamic acid isobutyl ester] | 40% | –
